Test results: patent publication US8173144B2, “Administration of urea compounds for combating signs of cutaneous aging” (L'Oreal, priority 2004, dated 2012)

Test system: acid proteases of the SC (stratum corneum)
Experiment: Activation of acid proteases of the stratum corneum (Enzchek fluorimetry, Bodipy FL casein substrate)
Assay type: biochemical
Protocol: The property of activating certain acid proteases of the SC (stratum corneum) is evaluated. This activity is measured by virtue of a quantitative determination by fluorimetry using the Enzchek kit (Molecular Probes). This protocol uses a Bodipy FL casein substrate which releases fluorescence when it is hydrolyzed. The fluorescence released is directly proportional to the protease activity. It is read directly in a 96-well plate with a spectrofluorimeter at 750 V at 485 nm in excitation and 535 nm in emission.
The molecules are prepared at 0, 1, 2 and 4M in a 0.1M; pH 5.0; acetate buffer.
An enzyme extract is prepared from acetone powders.
2 ml of PBS buffer+0.1% of Triton X100 are brought into contact for 1 h in crushed ice with 200 mg of stratum corneum acetone powders. The mixture is subsequently ground in a Potter homogenizer and then centrifuged at 15 000 g for 10 min at 4° C. The supernatant is collected. The Enzchek substrate, diluted to 1/200, is incorporated in each solution comprising the molecules. The assays are repeated three times.
The reaction mixture is prepared directly in a white plate.
10 μl of enzyme extract are added to 200 μl of solution comprising the substrate at 0, 1, 2 or 4M. The readings are carried out at t0, t 2h, t 16h and t 24h.

[1] = 1 and 2M in 0.1M acetate buffer pH 5.0, readings t0, t 2h, t 16h, t 24h

SMILES: NC(=O)NCCO [N-(2-hydroxethyl)urea, N-(2-hydroxyethyl)urea]
- acid protease activity (fluorescence) with respect to the control [1]: significant increase in the activity
- acid protease activity (fluorescence) with respect to the control (4M in 0.1M acetate buffer pH 5.0, whatever the time studied): marked decrease in the activity

SMILES: NC(N)=O [Urea, urea]
- acid protease activity (fluorescence) with respect to the control [1]: slightly activating effect on the acid proteases up to two hours
